Literature values in patent publication US6734210B2, “Therapeutically improved salts of azelaic acid” (priority 2000, dated 2004).

O=C(O)CCCCCCCC(=O)O [azelaic acid]
solubility in cosmetic oils (cosmetic oils): little or no solubility | maximum azelaic acid content of a water solution (water): about 0.24 % by weight (w/w)
